The subject of assay [1] is SKBR-3 (breast cancer) cells. Kind of assay: Cytotoxicity, chemiluminescent BrdU-ELISA incorporation assay on SKBR-3 cells. The note with it: as antibody conjugate. The format is cell-based. (In general: An ELISA detects its analyte on a solid surface through an enzyme-linked reagent.)
Protocol: Cytotoxic activity of Trastuzumab (Anti-Her2neu-specific antibody)-amatoxin conjugates was evaluated in vitro on HER2-positive tumor cell lines SKBR-3 (breast cancer), NCI-N87 (gastric cancer), and JIMT-1 (breast cancer) using a chemiluminescent BrdU-ELISA incorporation assay (Roche).
A further assay addresses RNA polymerase II (Homo sapiens, UniProt P24928+P30876). The note with it: read-out: KD of complex between amanitin and RNA polymerase II; cited from earlier work.

Results on 2 molecules are retold here after patent publication US20230173087A1, “ANTIBODY DRUG CONJUGATES WITH CLEAVABLE LINKERS” (Heidelberg Pharma Research GmbH, priority 2019, published 2023).

One may read the Kd as the equilibrium constant for the complex coming apart.

As to `CC[C@H](C)[C@@H]1NC(=O)CNC(=O)C2Cc3c([nH]c4cc(O)ccc34)[S@+]([O-])CC(NC(=O)CNC1=O)C(=O)NC(CC(N)=O)C(=O)N1CC(O)CC1C(=O)N[C@@H]([C@@H](C)[C@@H]1COC(c3ccc(NC(=O)[C@H](C)NC(=O)C(NC(=O)CCN4C(=O)C=CC4=O)C(C)C)cc3)O1)C(=O)N2` (stereo partly drawn) [HDP 30.2684, α-Amanitin-(BMP-Val-Ala-4-amino-benzylidenacetal)], in assay [1], the “effectiveness in vitro compared to HDP 30.1699” value is recorded as “as effective as HDP 30.1699”.

With amanitin, the Kd at RNA polymerase II is 3 nM.
